Here are results for 22 compounds from patent publication US20230295157A1, “3-(1H-IMIDAZOL-2-YL)-2,3,8,8A-TETRAHYDROINDOLIZIN-5(1H)-ONE DERIVATIVES USEFUL AS FACTOR XIA INHIBITORS” (JANSSEN PHARMACEUTICA NV, priority 2020, published 2023).

One assay has as its target Factor XIa (Homo sapiens (Human), UniProt P03951). In words: Factor XIa inhibition assay (FLINT) utilizing a fluorophore-quencher pair peptide substrate. The class given is biochemical. Conditions: 30 min preincubation, kinetic reads over 30 min, 5Fam-KLTRAETV-K5Tamra substrate 15 μM; read-out: FXIa Kin Inh IC50. The gist of the method:
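FXIa ([…]) preincubated 30 min with compound (11-point 3-fold dilution, top 100 nM, 2% DMSO), then 15 μM quenched FXI Arg146-based peptide added; Tris pH 7.5, CaCl2, BSA, CHAPS. Fluorescence 485/520 nm read kinetically every 5 min over 30 min at RT; IC50 by 4-parameter fit.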

A further assay addresses human plasma kallikrein (Homo sapiens (Human), UniProt P03952). In words: Kallikrein inhibition assay (FLINT) utilizing a quenched AMC peptide substrate. It counts as biochemical. Particulars: 30 min preincubation, read-out: Kallikrein Kin Inh IC50. The gist of the method: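 Enzyme (2 nM final) pre-incubated 30 min at room temperature with compound (11-point, 3-fold, top 1 μM, 2% DMSO), then 50 μM Z-Gly-Pro-Arg-AMC added in Tris pH 7.5 buffer. Kinetic fluorescence 340/440 nm every 5 min over 30 min; IC50 from 4-parameter logistic fit.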

The mark [1] stands for this setting: kinetic reads over 30 min, Z-Gly-Pro-Arg-AMC substrate 50 μM.

The term IC50 denotes the concentration that gives 50% inhibition.

Like-named read-outs stand apart in the source and are kept apart here.

Chain of Factor XIa (P03951 388-625): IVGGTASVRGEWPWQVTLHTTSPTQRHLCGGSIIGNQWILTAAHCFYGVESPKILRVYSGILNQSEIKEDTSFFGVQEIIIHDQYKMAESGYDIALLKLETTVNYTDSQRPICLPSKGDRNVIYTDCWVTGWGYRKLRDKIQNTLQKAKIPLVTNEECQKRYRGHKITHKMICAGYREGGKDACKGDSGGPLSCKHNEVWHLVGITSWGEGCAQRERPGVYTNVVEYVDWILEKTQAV
Chain of Factor XIa (P03951 19-387 partner): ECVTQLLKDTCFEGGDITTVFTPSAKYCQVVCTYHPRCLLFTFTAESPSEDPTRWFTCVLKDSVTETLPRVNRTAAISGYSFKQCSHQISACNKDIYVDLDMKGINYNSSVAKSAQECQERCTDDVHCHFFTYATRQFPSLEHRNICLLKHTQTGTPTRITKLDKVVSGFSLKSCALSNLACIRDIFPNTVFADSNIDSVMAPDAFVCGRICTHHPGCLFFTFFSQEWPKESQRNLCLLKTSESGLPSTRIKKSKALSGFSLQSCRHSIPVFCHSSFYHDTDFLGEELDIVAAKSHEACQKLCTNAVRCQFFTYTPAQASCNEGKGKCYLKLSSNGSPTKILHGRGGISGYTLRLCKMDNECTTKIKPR
Chain of human plasma kallikrein (P03952 391-638): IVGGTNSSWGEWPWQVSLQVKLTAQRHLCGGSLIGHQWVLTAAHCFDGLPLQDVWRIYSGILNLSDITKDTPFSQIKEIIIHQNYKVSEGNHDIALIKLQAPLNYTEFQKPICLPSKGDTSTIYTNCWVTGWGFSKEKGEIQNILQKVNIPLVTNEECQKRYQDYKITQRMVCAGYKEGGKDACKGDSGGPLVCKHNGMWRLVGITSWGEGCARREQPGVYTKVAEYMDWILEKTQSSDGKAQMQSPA
Chain of human plasma kallikrein (P03952 20-390 partner): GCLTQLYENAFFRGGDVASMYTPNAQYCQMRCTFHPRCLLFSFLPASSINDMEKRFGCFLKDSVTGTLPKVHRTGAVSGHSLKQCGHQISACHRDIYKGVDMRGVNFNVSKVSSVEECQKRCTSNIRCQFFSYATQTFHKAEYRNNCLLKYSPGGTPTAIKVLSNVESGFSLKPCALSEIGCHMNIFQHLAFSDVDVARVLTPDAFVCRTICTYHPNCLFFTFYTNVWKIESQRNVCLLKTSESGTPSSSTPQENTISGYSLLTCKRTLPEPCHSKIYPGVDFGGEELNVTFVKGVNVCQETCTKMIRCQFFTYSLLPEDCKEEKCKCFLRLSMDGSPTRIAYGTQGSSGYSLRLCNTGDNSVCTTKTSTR

As for `COC(=O)Nc1ccc(-c2cnc([C@@H]3CCC4CC(c5c(-n6cnnn6)ccc(Cl)c5F)=CC(=O)N43)[nH]2)cn1` (stereo partly drawn) [Example 325, Methyl (5-(2-((3S)-7-(3-Chloro-2-fluoro-6-(1H-tetrazol-1-yl)phenyl)-5-oxo-1,2,3,5,8,8a-hexahydroindolizin-3-yl)-1H-imidazol-5-yl)pyridin-2-yl)carbamate], the IC50 at Factor XIa was found to be 1.2 nM; on human plasma kallikrein (setting [1]), 0.007 µM.
With `COC(=O)Nc1ccc(-c2cnc([C@@H]3CCC4CC(c5c(-n6cnnn6)ccc(Cl)c5F)=CC(=O)N43)[nH]2)nc1` (stereo partly drawn) [Example 326, Methyl (6-(2-((3S)-7-(3-Chloro-2-fluoro-6-(1H-tetrazol-1-yl)phenyl)-5-oxo-1,2,3,5,8,8a-hexahydroindolizin-3-yl)-1H-imidazol-5-yl)pyridin-3-yl)carbamate], the IC50 at Factor XIa stood at 1 nM; at human plasma kallikrein (setting [1]), 0.0124 µM.
For `CO[C@@H]1C[C@@H](c2nc(-c3ccc(N)nc3F)c[nH]2)N2C(=O)C=C(c3c(-n4cnnn4)ccc(Cl)c3F)CC12` (stereo partly drawn) [Example 327, (1R,3S)-3-(4-(6-Amino-2-fluoropyridin-3-yl)-1H-imidazol-2-yl)-7-(3-chloro-2-fluoro-6-(1H-tetrazol-1-yl)phenyl)-1-methoxy-2,3,8,8a-tetrahydroindolizin-5(1H)-one] the same measures were 0.6 nM and 0.0095 µM.
For `CC1CC2CC(c3c(-n4cnnn4)ccc(Cl)c3F)=CC(=O)N2C1c1ncc(-c2ccc(N)nc2F)[nH]1` (centres unmarked) [Example 328, 3-(5-(6-Amino-2-fluoropyridin-3-yl)-1H-imidazol-2-yl)-7-(3-chloro-2-fluoro-6-(1H-tetrazol-1-yl)phenyl)-2-methyl-2,3,8,8a-tetrahydroindolizin-5(1H)-one] the same measures were 3.4 nM and 0.0459 µM.
For `CC(C)C(=O)Nc1ccccc1-c1c[nH]c([C@@H]2CCC3CC(c4c(-n5cnnn5)ccc(Cl)c4F)=CC(=O)N32)n1` (stereo partly drawn) [Example 329, N-(2-(2-((3S)-7-(3-Chloro-2-fluoro-6-(1H-tetrazol-1-yl)phenyl)-5-oxo-1,2,3,5,8,8a-hexahydroindolizin-3-yl)-1H-imidazol-4-yl)phenyl)isobutyramide] the same measures were 0.5 nM and 0.0013 µM.
`O=C(Nc1ccccc1-c1c[nH]c([C@@H]2CCC3CC(c4c(-n5cnnn5)ccc(Cl)c4F)=CC(=O)N32)n1)C1CCCC1` (some centres unmarked) [Example 330]: the IC50 on Factor XIa came out at 0.9 nM; on human plasma kallikrein (setting [1]), 0.0024 µM.
For the compound `O=C1C=C(c2c(-n3cnnn3)ccc(Cl)c2F)CC2CC[C@@H](c3nc(-c4nc[nH]n4)c[nH]3)N12` (stereo partly drawn) [Example 331, (3S)-3-(4-(1H-1,2,4-Triazol-3-yl)-1H-imidazol-2-yl)-7-(3-chloro-2-fluoro-6-(1H-tetrazol-1-yl)phenyl)-2,3,8,8a-tetrahydroindolizin-5(1H)-one], the half-maximal inhibitory concentration (IC50) at Factor XIa turned out to be 347 nM; at human plasma kallikrein (μM, kinetic reads), 2.4 µM.
Consider `O=C1C=C(c2c(-n3cnnn3)ccc(Cl)c2F)CC2CC[C@@H](c3nc(-c4cnn[nH]4)c[nH]3)N12` (stereo partly drawn) [Example 332, (3S)-3-(4-(1H-1,2,3-Triazol-5-yl)-1H-imidazol-2-yl)-7-(3-chloro-2-fluoro-6-(1H-tetrazol-1-yl)phenyl)-2,3,8,8a-tetrahydroindolizin-5(1H)-one], for which the figures for the IC50 on Factor XIa and on human plasma kallikrein (setting [1]) were 85.8 nM and 0.542 µM, respectively.
Take `O=C1C=C(c2c(-n3cnnn3)ccc(Cl)c2F)CC2CC[C@@H](c3nc(-c4ncc[nH]4)c[nH]3)N12` (stereo partly drawn) [Example 333, (3S)-3-(1H,1′H-[2,4′-Biimidazol]-2′-yl)-7-(3-chloro-2-fluoro-6-(1H-tetrazol-1-yl)phenyl)-2,3,8,8a-tetrahydroindolizin-5(1H)-one]: the IC50 on Factor XIa is 282 nM; at human plasma kallikrein (μM, kinetic reads), 1.1 µM.
For `Cn1ccnc1-c1c[nH]c([C@@H]2CCC3CC(c4c(-n5cnnn5)ccc(Cl)c4F)=CC(=O)N32)n1` (stereo partly drawn) [Example 334, (3S)-7-(3-chloro-2-Fluoro-6-(1H-tetrazol-1-yl)phenyl)-3-(1-methyl-1H,1′H-[2,4′-biimidazol]-2′-yl)-2,3,8,8a-tetrahydroindolizin-5(1H)-one] the same measures were 211 nM and 7.3 µM.
In the same order, the values of `Cn1nncc1-c1c[nH]c([C@@H]2CCC3CC(c4c(-n5cnnn5)ccc(Cl)c4F)=CC(=O)N32)n1` (stereo partly drawn) [Example 339, (3S)-7-(3-Chloro-2-fluoro-6-(1H-tetrazol-1-yl)phenyl)-3-(4-(1-methyl-1H-1,2,3-triazol-5-yl)-1H-imidazol-2-yl)-2,3,8,8a-tetrahydroindolizin-5(1H)-one] are 134 nM and 2.05 µM.
With `COC(=O)Nc1ccc(-c2cnc([C@@H]3CC[C@H]4CC(c5c(-n6cnnn6)ccc(Cl)c5F)=CC(=O)N43)[nH]2)cc1` [Example 340, Methyl (4-(2-((3S,8aS)-7-(3-chloro-2-fluoro-6-(1H-tetrazol-1-yl)phenyl)-5-oxo-1,2,3,5,8,8a-hexahydroindolizin-3-yl)-1H-imidazol-5-yl)phenyl)carbamate], the values for the IC50 on Factor XIa and on human plasma kallikrein (setting [1]) were 0.3 nM and 0.0019 µM, respectively.
For `COC(=O)Nc1ccc(-c2cnc([C@@H]3CC[C@@H]4CC(c5c(-n6cnnn6)ccc(Cl)c5F)=CC(=O)N43)[nH]2)cc1` [Example 341, Methyl (4-(2-((3S,8aR)-7-(3-chloro-2-fluoro-6-(1H-tetrazol-1-yl)phenyl)-5-oxo-1,2,3,5,8,8a-hexahydroindolizin-3-yl)-1H-imidazol-5-yl)phenyl)carbamate] the same measures were 0.2 nM and 0.0013 µM.
In the same order, the values of `O=C(O)c1ccc(-c2cnc([C@@H]3CCC4CC(c5c(-n6cnnn6)ccc(Cl)c5F)=CC(=O)N43)[nH]2)cc1F` (stereo partly drawn) [Example 342, 4-[2-[(3S)-7-[3-Chloro-2-fluoro-6-(tetrazol-1-yl)phenyl]-5-oxo-2,3,8,8a-tetrahydro-1H-indolizin-3-yl]-1H-imidazol-4-yl]-2-fluoro-benzoic acid] are 22.6 nM and 0.405 µM.
On to `CC1C[C@@H](c2ncc(-c3ccc(N)nc3Cl)[nH]2)N2C(=O)C=C(c3c(-n4cnnn4)ccc(Cl)c3F)CC12` (stereo partly drawn) [Example 347, (3S)-3-(5-(6-Amino-2-chloropyridin-3-yl)-1H-imidazol-2-yl)-7-(3-chloro-2-fluoro-6-(1H-tetrazol-1-yl)phenyl)-1-methyl-2,3,8,8a-tetrahydroindolizin-5(1H)-one], for which the values for the IC50 on Factor XIa and at human plasma kallikrein (setting [1]) were 0.6 nM and 0.0055 µM, respectively.
For `CC1C[C@@H](c2ncc(-c3ccc(N)nc3F)[nH]2)N2C(=O)C=C(c3c(-n4cnnn4)ccc(Cl)c3F)CC12` (stereo partly drawn) [Example 348, (3S)-3-(5-(6-Amino-2-fluoropyridin-3-yl)-1H-imidazol-2-yl)-7-(3-chloro-2-fluoro-6-(1H-tetrazol-1-yl)phenyl)-1-methyl-2,3,8,8a-tetrahydroindolizin-5(1H)-one] the same measures were 0.5 nM and 0.0064 µM.
For `CC1(C)C[C@@H](c2ncc(-c3ccc(N)nc3Cl)[nH]2)N2C(=O)C=C(c3c(-n4cnnn4)ccc(Cl)c3F)CC21` (stereo partly drawn) [Example 349, (3S)-3-(5-(6-Amino-2-chloropyridin-3-yl)-1H-imidazol-2-yl)-7-(3-chloro-2-fluoro-6-(1H-tetrazol-1-yl)phenyl)-1,1-dimethyl-2,3,8,8a-tetrahydroindolizin-5(1H)-one] the same measures were 0.6 nM and 0.0056 µM.
As to `CC1(C)C[C@@H](c2ncc(-c3ccc(N)nc3F)[nH]2)N2C(=O)C=C(c3c(-n4cnnn4)ccc(Cl)c3F)CC21` (stereo partly drawn) [Example 350, (3S)-3-(5-(6-Amino-2-fluoropyridin-3-yl)-1H-imidazol-2-yl)-7-(3-chloro-2-fluoro-6-(1H-tetrazol-1-yl)phenyl)-1,1-dimethyl-2,3,8,8a-tetrahydroindolizin-5(1H)-one], the figures for the half-inhibitory concentration (IC50) on Factor XIa and at human plasma kallikrein (setting [1]) were 1.3 nM and 0.0185 µM, respectively.
In the same order, the values of `O=C1C=C(c2c(-n3cnnn3)ccc(Cl)c2F)C[C@H]2CC[C@@H](c3ncc(-c4ccnc(C(F)(F)F)c4)[nH]3)N12` [Example 351, (3S,8aR)-7-(3-Chloro-2-fluoro-6-(1H-tetrazol-1-yl)phenyl)-3-(5-(2-(trifluoromethyl)pyridin-4-yl)-1H-imidazol-2-yl)-2,3,8,8a-tetrahydroindolizin-5(1H)-one] are 2.7 nM and 0.0078 µM.
Consider `Nc1ccc(-c2cnc([C@@H]3CC[C@H]4CC(c5c(-n6cnnn6)ccc(Cl)c5F)=CC(=O)N43)[nH]2)c(Cl)n1` [Example 352, (3S,8aS)-3-(5-(6-Amino-2-chloropyridin-3-yl)-1H-imidazol-2-yl)-7-(3-chloro-2-fluoro-6-(1H-tetrazol-1-yl)phenyl)-2,3,8,8a-tetrahydroindolizin-5(1H)-one], for which the IC50 at Factor XIa was found to be 0.3 nM; on human plasma kallikrein (setting [1]), 0.0049 µM.
For `O=C1C=C(c2c(-n3cnnn3)ccc(Cl)c2F)C[C@@H]2CC[C@@H](c3ncc(-c4ccnc(C(F)(F)F)c4)[nH]3)N12` [Example 353, (3S,8aS)-7-(3-Chloro-2-fluoro-6-(1H-tetrazol-1-yl)phenyl)-3-(5-(2-(trifluoromethyl)pyridin-4-yl)-1H-imidazol-2-yl)-2,3,8,8a-tetrahydroindolizin-5(1H)-one] the same measures were 12.9 nM and 0.0175 µM.
Turning to `Nc1ccc(-c2cnc([C@@H]3CC[C@@H]4CC(c5c(-n6cnnn6)ccc(Cl)c5F)=CC(=O)N43)[nH]2)c(Cl)n1` [Example 354, (3S,8aR)-3-[5-(6-amino-2-chloro-3-pyridyl)-1H-imidazol-2-yl]-7-[3-chloro-2-fluoro-6-(tetrazol-1-yl)phenyl]-2,3,8,8a-tetrahydro-1H-indolizin-5-one], the concentration for half-maximal inhibition (IC50) on Factor XIa was 0.2 nM; at human plasma kallikrein (setting [1]) it was 0.0026 µM.
